# According to patent publication US20200345725A1, “Methods and Compositions for Treating Cancer” (Omeros Corporation, priority 2019, published 2020):
# pEC50: −log10 of the molar value. Several values for one entry are separate records, joined by “and”; a condition that tells them apart may be missing. Equal entries are not always repeated. Marks after values point to notes of the source that are not given here.
# Experiments:
# Assay type in all cases: cell-based
# [1] = test system: mouse splenocytes; assay: IL-2 levels in supernatants of cultured mouse splenocytes (WT or GPR174-KO) stimulated with anti-CD3 and anti-CD28, MSD platform; conditions: 2 days
# Experimental: To make single cell suspensions from mouse splenocytes, spleens were cut into 1-2 mm^3 pieces with a razor blade and incubated at 37° C. with 10 μg/mL DNase and 1 mg/mL Collagenase D with agitation for 90 min. Spleen fragments and cells were then pressed through a nylon screen, and the resulting cell suspension was washed. In 96-well flat-bottom plates, splenocytes were cultured in quadruplicate with the following conditions for 2 days, after which supernatants were tested for cytokine levels with the MSD platform.
# Anti-CD3 (clone 2C11; 0.1 μg/mL)
# GPR174 inhibitor (compound 10, 1 μM or 0.3 μM, or DMSO vehicle control)
# GPR174 inhibitor (compound 6, 0.3 μM, or DMSO vehicle control)
# Adenosine receptor agonist (NECA, 0.1 μM)
# [2] = test system: human PBMC; assay: IL-2 in supernatants of human PBMC stimulated with anti-CD3 and anti-CD28, ELISA; conditions: human PBMC donor 8, 24 hours post-stimulation; compound 10 1 μM, ZM-241385 0.1 μM, APCP 10 μM; FIG. 71
# Experimental: Human PBMCs, obtained from a human volunteer donor (donor 8), were dispensed in X-vivo15 media (Lonza) supplemented with Glutamax, penicillin and streptomycin, at density of 1×10^6 cells/well in a 96-well flat-bottom plate and were cultured in quadruplicate for 3 hours in the presence of:
# GPR174 inhibitory compound 10 (1 μM);
# CD73 inhibitory compound, adenosine 5′-(a,p-methylene)diphosphate sodium salt (APCP, Tocris, 10 μM);
# Combinations of the above agents;
# After which 1 μg/mL anti-CD3 antibody (UCHT1) and 0.1 μg/mL anti-CD28 antibody (CD28.2) were added to activate T cells. Supernatants from these cells were collected at 24 hours post-stimulation and the levels of IL-2 were determined by ELISA.
# [3] = test system: CHRM1; assay: CRA against CHRM1
# Text: (§1) The inventors used a CRA similar to that described in U.S. Pat. No. 7,309,576 and O'Dowd et al., J. Biomol. Screen. 12:175-85, 2007 to identify compounds that are capable of interacting with GPR174 using a library of approximately 370,000 chemical entities. Briefly described, the CRA assay described in U.S. Pat. No. 7,309,576 involves artificially inserting a NLS into the dopamine D1 receptor (DRD1), which allows the receptor to traffic from the cell membrane to the cell interior, and that the binding of antagonists to the receptor retained the receptor at the cell surface, while removal of the ligand allowed the receptor to continue to internalize from the cell surface. Both antagonists and agonists that selectively bound the receptor retained the receptor on the plasma membrane. GPR174 constructs were generated for use in a CRA-based compound screening assay. From this screen, the inventors initially identified compounds of formula I-VI, as described herein and included in Table 1.
# The inventors also sought to validate that the compounds identified using the CRA are modulatory compounds. To this end, the above-described CRA was used to screen a library for compounds that interact with three control non-orphan receptors, and the results of this screen were compared to the results of screening the same library for compound that were identified using a Fluorometric Imaging Plate Reader (FLIPR) assay, a conventional technique commonly used to identify compounds interacting with non-orphan GPCRs signaling through Ca^++. Three non-orphan GPCRs—Muscarinic acetylcholine receptor M1 (CHRM1), Adrenergic receptor alpha 1a (ADRA1a), and Neuropeptide S receptor (NPSR)—were screened against a 10,000-compound GPCR-focused library. Thirty interacting compound “hits” were identified using the CRA, and eighty-one hits were identified using the FLIPR for the CHRM1 receptor; 9 CRA hits and 29 FLIPR hits for the NPS receptor were identified; and 110 CRA hits and 110 FLIPR hits for ADRA1a.
# In addition, the CRA can also provide the relative potencies of compounds against the target receptor.
# [4] = biological target: T1, GPR174 (Homo sapiens, UniProt Q9BXC1); assay: Cellular redistribution assay (CRA) for GPR174
# Text: One method for identifying compounds capable of modulating a receptor is using a cellular redistribution assay (“CRA”). Exemplary CRA methods are found in U.S. Pat. No. 7,309,576 issued to O'Dowd et al. and in O'Dowd et al., J. Biomol. Screen. 12:175-85,2007. […] Incorporation of the NLS alters the cellular localization of the GPCR, such that the majority of the NLS-modified receptor is present in the cell interior. An NLS-modified GPCR, when interacting with a functionally active compound, is mostly localized on the cell surface. Thus, it becomes possible to identify receptor modulators without knowledge of the endogenous ligand or a surrogate ligand.
# The inventors have identified a number of compounds that inhibit GPR174 using a CRA assay similar to that described in U.S. Pat. No. 7,309,576 and in O'Dowd et al., J. Biomol. Screen. 12:175-85, 2007. These compounds are described in detail below.
# as §1
# Target sequence in this assay (Q9BXC1 1-292 limits assumed): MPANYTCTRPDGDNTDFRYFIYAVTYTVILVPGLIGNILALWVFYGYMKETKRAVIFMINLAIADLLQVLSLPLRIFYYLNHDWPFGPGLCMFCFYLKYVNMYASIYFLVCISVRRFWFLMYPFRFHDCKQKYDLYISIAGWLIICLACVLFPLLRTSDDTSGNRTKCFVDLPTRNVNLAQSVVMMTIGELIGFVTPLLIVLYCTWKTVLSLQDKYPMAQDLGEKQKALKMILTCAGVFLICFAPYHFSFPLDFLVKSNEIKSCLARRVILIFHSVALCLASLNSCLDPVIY
# [5] = biological target: T1, GPR174; assay: CRE-Luc reporter Gs signaling assay with GPR174; parameters: host or cells: HEK293 or CHO cell lines (ATCC); conditions: for Human GPR174 CRE Activity: nature of the compound (IA, antagonist, NM) / Fold decrease in Gs signaling activity / pEC50: pCRE-Luc reporter; for Gs pathway in the presence of GPR174 (CRE-Luc reporter): increasing concentrations of compound; for pEC50: multiple values = separate experiments
# Target sequence in this assay (Q9BXC1 whole entry): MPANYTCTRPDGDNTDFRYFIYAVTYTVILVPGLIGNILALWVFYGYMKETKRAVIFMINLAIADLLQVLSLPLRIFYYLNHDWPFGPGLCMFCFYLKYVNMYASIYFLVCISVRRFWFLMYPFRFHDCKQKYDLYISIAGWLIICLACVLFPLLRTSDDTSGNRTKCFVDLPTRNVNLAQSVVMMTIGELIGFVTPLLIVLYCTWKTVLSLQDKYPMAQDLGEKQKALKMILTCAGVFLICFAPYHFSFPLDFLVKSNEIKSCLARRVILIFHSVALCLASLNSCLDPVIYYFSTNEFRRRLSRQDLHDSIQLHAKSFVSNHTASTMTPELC
# [6] = biological target: T2, ADBR2 (Homo sapiens, UniProt P07550); assay: CRE-Luc reporter assay with control receptor ADBR2
# T2 construct: host or cells: HEK293 or CHO cell lines (ATCC)
# T2 sequence (P07550 whole entry): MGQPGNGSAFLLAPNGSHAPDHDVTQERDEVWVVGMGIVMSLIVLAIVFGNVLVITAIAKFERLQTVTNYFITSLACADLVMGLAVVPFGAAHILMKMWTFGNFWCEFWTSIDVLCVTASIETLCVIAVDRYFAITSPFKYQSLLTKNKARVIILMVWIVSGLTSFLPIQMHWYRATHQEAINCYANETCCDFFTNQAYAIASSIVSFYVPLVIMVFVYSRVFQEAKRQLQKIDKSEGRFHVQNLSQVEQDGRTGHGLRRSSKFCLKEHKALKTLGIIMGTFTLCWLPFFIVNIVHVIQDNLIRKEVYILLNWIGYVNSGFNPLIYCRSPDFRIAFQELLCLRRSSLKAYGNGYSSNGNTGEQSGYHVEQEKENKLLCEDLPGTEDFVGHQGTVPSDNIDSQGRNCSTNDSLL
# Experimental: The DNA/lipofectamine 2000 mix (3000 μL) was incubated at room temperature for 30 minutes and then added into a 10 cm culture dish (Corning, NY) containing 70-90% confluent cultured cells, (HEK293 or CHO cell lines (ATCC, VA)), in 15 mL of media. […] The cells were further incubated at 37° C. for various times. The media were removed and the cells lysed.
# Compounds were tested in the reporter system with increasing concentrations of GPR174-interacting compounds.
# The DNA/lipofectamine 2000 mix (3000 μL) was incubated at room temperature for 30 minutes and then added into a 10 cm culture dish (Corning, NY) containing 70-90% confluent cultured cells, typically HEK293 or CHO cell lines (ATCC, VA), in 15 mL of media. […] Media (26 mL) were added to the detached cells and 120 μL of transfected cells were transferred to each well on a 96-well plate. Increasing concentration of each compound in DMSO (1.2 μl) was added to the cells after plating into the 96-well plate. The cells were further incubated at 37° C. for various times. The media were removed, and the cells lysed.
# ADBR2 is a GPCR, like GPR174, that activates the Gs signaling pathway.
# [7] = test system: human PBMCs; assay: Th1 cytokines in supernatants of stimulated human PBMC, GPR174 inhibitor with adenosine pathway inhibitors (Examples 15, 18-22); conditions: donor 7
# Experimental: Human PBMCs, obtained from a human volunteer donor, were dispensed at density of 1×10^6 cells/well in a 96-well flat-bottom plate and were stimulated in triplicate with 1 μg/mL anti-CD3 antibody (UCHT1) and 0.1 μg/mL anti-CD28 antibody (CD28.2) in the presence of:
# Supernatants from these cells were collected at 24 hours post-stimulation and the levels of IFN-γ were determined by ELISA assay. Statistical analysis was carried out using one-way ANOVA with Tukey's post-hoc multiple comparison's correction.
# Human PBMCs, obtained from a human volunteer donor (donor 1), were dispensed in X-vivo15 media (Lonza) supplemented with Glutamax, penicillin and streptomycin, at density of 1×10^6 cells/well in a 96-well flat-bottom plate and were stimulated with 1 μg/mL anti-CD3 antibody (UCHT1) and 0.1 μg/mL anti-CD28 antibody (CD28.2) in the presence of:
# Supernatants from these cells were collected at 24 hours post-stimulation and the levels of IFN-γ, IL-2 and TNF were determined by ELISA assays.
# Human PBMCs, obtained from two individual human volunteer donors (donor 2 and donor 3), were dispensed at density of 1×10^6 cells/well in a 96-well flat-bottom plate and were stimulated with 1 μg/mL anti-CD3 antibody (UCHT1) and 0.1 μg/mL anti-CD28 antibody (CD28.2) in the presence of:
# Human PBMCs, obtained from twelve individual human volunteer donors were dispensed at density of 1×10^6 cells/well in a 96-well flat-bottom plate and were stimulated in triplicate with 1 μg/mL anti-CD3 antibody (UCHT1) and 0.1 μg/mL anti-CD28 antibody (CD28.2) in the presence of:
# A total of 44 experiments using PBMC from 12 healthy donors were tested (9 donors for GM-CSF), with each donor tested in 1 to 8 separate experiments, depending on the donor (1 to 4 experiments each for GM-CSF). […] Cytokines were detected in supernatants with the Legendplex (Biolegend) or the MSB (MesoScale) platforms. […] One-way ANOVA with Tukey's post-hoc multiple comparisons correction was performed to identify significant differences (FC, mean fold change; ****, p<0.0001, ***, p<0.001; **, p<0.01; *, p<0.05, ns, not significant).
# Human PBMC (1×10^6 cells/well in a 96-well flat-bottom plate) obtained from donor 3 and donor 6 were stimulated with 1 μg/mL anti-CD3 antibody (UCHT1) and 0.1 μg/mL anti-CD28 antibody (CD28.2) in the presence of:
# Supernatants from these cells were collected at 24 hours post-stimulation and the levels of IFN-γ, IL-2, and TNF were determined with the MSD platform (MesoScale Discovery).
# Human PBMC (1×10^6 cells/well in a 96-well flat-bottom plate) obtained from donor 7 were stimulated with 1 μg/mL […] (UCHT1) and 0.1 μg/mL anti-CD28 antibody (CD28.2) in the presence of:
# Supernatants from these cells were collected at 24 hours post-stimulation and the levels of IFN-γ, IL-2, TNF and GM-CSF were determined with the MSD platform (MesoScale Discovery).
# Supernatants from these cells were collected at 24 hours post-stimulation and the levels of IFN-γ, IL-2 and TNF were determined with the MSD platform (MesoScale Discovery).
# [8] = high and low concentrations, ZM 0.1 μM
# [9] = no ZM, 0.3 μM (compound 20: 3 μM)
# [10] = no ZM, 1 μM (compound 20: 10 μM)
# [11] = with ZM-241385 0.1 μM, 0.3 μM (compound 20: 3 μM)
# [12] = with ZM-241385 0.1 μM, 1 μM (compound 20: 10 μM), label ZM = ZM alone
compound,measurement,setting,value
Nc1nc(NCCc2ccc(O)cc2)nc2nc(-c3ccco3)nn12 [ZM-241385],increase of IL-2 levels,"[1]; GPR174-KO splenocytes, no NECA, ZM-241385 0.1 μM, FIG. 68B",1.3 fold
same,increase of IL-2 levels,"[1]; WT splenocytes, NECA 0.1 μM, compounds 10, 6 0.3 μM, ZM-241385 0.2 μM, FIG. 69",2 fold
same,increase of IL-2 levels,"[1]; WT splenocytes, no NECA, compound 10 1 μM, ZM-241385 0.1 μM, FIG. 68A",1.3 fold
same,increase of IL-2 levels,[2],1.4 fold
CC(=O)c1ccc(N2CCN(C(=O)c3ccc(F)cc3)CC2)c(F)c1 [compound 3],activity against CHRM1 in the CRA (FIG. 5B),[3],do not show any activity
same,dose-response curve against GPR174 in the CRA (FIG. 5A),[4],show a dose-response curve
same,"Human GPR174 CRE Activity: nature of the compound (IA, antagonist, NM)",[5],Antagonist or allostetic modulator
CC(=O)N1CCN(c2cc(N3CCCCC3)c(F)cc2[N+](=O)[O-])CC1 [compound 2],activity against CHRM1 in the CRA (FIG. 5B),[3],do not show any activity
same,dose-response curve against GPR174 in the CRA (FIG. 5A),[4],show a dose-response curve
same,Gs pathway in the presence of ADBR2 (CRE-Luc reporter),[6],did not inhibit
same,Gs pathway in the presence of GPR174 (CRE-Luc reporter),[5],inhibited
same,Fold decrease in Gs signaling activity,[5],1.7 fold
same,pEC50,[5],6.40 and 6.52
Cc1ccccc1Nc1nnc(-c2ccc(C)c(S(N)(=O)=O)c2)c2ccccc12 [compound 20],activity against CHRM1 in the CRA (FIG. 5B),[3],do not show any activity
same,synergy with ZM on GM-CSF (greater than the sum of the increases with each inhibitor alone),[7]; [8],synergized with ZM
same,synergy with ZM on IFN-γ (greater than the sum of the increases with each inhibitor alone),[7]; [8],synergized with ZM
same,synergy with ZM on IL-2 (greater than the sum of the increases with each inhibitor alone),[7]; [8],synergized with ZM
same,synergy with ZM on TNF (greater than the sum of the increases with each inhibitor alone),[7]; [8],synergized with ZM
same,"GM-CSF, ratio relative to vehicle control",[7]; [9],2.7*
same,"IFN-γ, ratio relative to vehicle control",[7]; [9],1.2
same,"IL-2, ratio relative to vehicle control",[7]; [9],1.3
same,"TNF, ratio relative to vehicle control",[7]; [9],1.4*
same,"GM-CSF, ratio relative to vehicle control",[7]; [10],2.3*
same,"IFN-γ, ratio relative to vehicle control",[7]; [10],1.5*
same,"IL-2, ratio relative to vehicle control",[7]; [10],1.4*
same,"TNF, ratio relative to vehicle control",[7]; [10],1.5*
same,"GM-CSF, ratio relative to vehicle control",[7]; [11],4.6*
same,"IFN-γ, ratio relative to vehicle control",[7]; [11],1.8*
same,"IL-2, ratio relative to vehicle control",[7]; [11],1.6*
same,"TNF, ratio relative to vehicle control",[7]; [11],1.9*
same,"GM-CSF, ratio relative to vehicle control",[7]; [12],4.4*
same,"IFN-γ, ratio relative to vehicle control",[7]; [12],2.1*
same,"IL-2, ratio relative to vehicle control",[7]; [12],2.1*
same,"TNF, ratio relative to vehicle control",[7]; [12],2.4*
same,dose-response curve against GPR174 in the CRA (FIG. 5A),[4],show a dose-response curve
same,"Human GPR174 CRE Activity: nature of the compound (IA, antagonist, NM)",[5],Antagonist or allosteric modulator
CCOC(=O)N1CCN(c2cc(N3CCC(C)CC3)c(F)cc2[N+](=O)[O-])CC1 [compound 1],activity against CHRM1 in the CRA (FIG. 5B),[3],do not show any activity
same,dose-response curve against GPR174 in the CRA (FIG. 5A),[4],show a dose-response curve
same,pEC50,[4]; multiple values = separate experiments,5.68
same,Gs pathway in the presence of ADBR2 (CRE-Luc reporter),[6],did not inhibit
same,Gs pathway in the presence of GPR174 (CRE-Luc reporter),[5],inhibited
same,Fold decrease in Gs signaling activity,[5],2.9 fold
same,pEC50,[5],6.40 and 6.10
"adenosine 5′-(a,p-methylene)diphosphate sodium salt [APCP]",increase of IL-2 levels,[2],1.5 fold
